Data set [1] is described as follows: in vivo. Particulars: C3H X DBA2 F1, mouse, ip.
Description: Toxicity in ip dosed C3H X DBA2 F1 mouse allografted with mouse L1210 cells through ip
Data set [2] is described as follows: in vivo. Particulars: C3H X DBA2 F1, mouse, ip. The source holds these as a separate data set.
Description: Toxicity in ip dosed C3H X DBA2 F1 mouse allografted with mouse L1210 cells through sc

Description for physchem: Ionization constant, pKa of the compound by UV spectrophotometric analysis

On to `NCCCCS(=O)(=O)Nc1ccc(Nc2c3ccccc3nc3ccccc23)cc1`, for which the pKa (usually the pH at which an ionisable group is half protonated) in the data set “physchem” was 6.91. Turning to `NCCCCCCCS(=O)(=O)Nc1ccc(Nc2c3ccccc3nc3cc([N+](=O)[O-])ccc23)cc1`, the pKa in the data set “physchem” was 5.36.

`Cl.NCCCCCCCCS(=O)(=O)Nc1ccc(Nc2c3ccccc3nc3cc([N+](=O)[O-])ccc23)cc1` registered a pKa in the data set “physchem” of 5.35. The MTD in “in vivo [1]” was determined as 30 mg/kg/day. Take `COc1cc(NS(=O)(=O)CCCCN)ccc1Nc1c2ccccc2nc2cc([N+](=O)[O-])ccc12`: in “physchem”, the pKa worked out at 5.58. The compound `Nc1c2ccccc2nc2ccccc12` [AMINACRINE] registered a pKa in the data set “physchem” of 9.6.

Turning to `Cl.NCCS(=O)(=O)Nc1ccc(Nc2c3ccccc3nc3ccccc23)cc1`, the pKa in “physchem” was determined as 6.62. The MTD in the data set “in vivo [1]” was 35 mg/kg/day. Taken in the same sequence, the figures for `C[n+]1c2ccccc2c(Nc2ccc(NS(=O)(=O)CCCCNC(=N)N)cc2)c2ccccc21.[Br-]` were 6.69 and 150 mg/kg/day. For `CN(C)CCCCS(=O)(=O)Nc1ccc(Nc2c3ccccc3nc3cc([N+](=O)[O-])ccc23)cc1.Cl`, the MTD in “in vivo [2]” turned out to be 10 mg/kg/day. In the data set “physchem”, the pKa was found to be 5.36. `Cl.N=C(N)NCCCCS(=O)(=O)Nc1ccc(Nc2c3ccccc3nc3cc(Cl)ccc23)cc1` registered a pKa in “physchem” of 6.33. Also, the MTD in the data set “in vivo [1]” stood at 150 mg/kg/day. In “in vivo [2]”, `Cl.NCCCS(=O)(=O)Nc1ccc(Nc2c3ccccc3nc3cc([N+](=O)[O-])ccc23)cc1` gave an MTD of 20 mg/kg/day. The pKa in the data set “physchem” was found to be 5.33.

In the case of `Cl.NCCCCCS(=O)(=O)Nc1ccc(Nc2c3ccccc3nc3cc([N+](=O)[O-])ccc23)cc1`, the MTD in the data set “in vivo [2]” is 44 mg/kg/day. The compound also came in with a pKa in the data set “physchem” of 5.36. On to `N=C(N)NCCCS(=O)(=O)Nc1ccc(Nc2c3ccccc3nc3cc([N+](=O)[O-])ccc23)cc1`, for which, in the data set “physchem”, the pKa came out at 5.34. `C[n+]1c2ccccc2c(Nc2ccc(NS(C)(=O)=O)cc2)c2ccc(N)cc21` came in with a pKa in “physchem” of 10.1.

Take `Cl.NCCCCCCS(=O)(=O)Nc1ccc(Nc2c3ccccc3nc3ccccc23)cc1`: the pKa in the data set “physchem” turned out to be 6.92. In the data set “in vivo [1]”, this compound returned an MTD of 65 mg/kg/day. Taken in the same sequence, the figures for `Cc1cccc2c(Nc3ccc(NS(=O)(=O)CCCCN)cc3)c3ccc([N+](=O)[O-])cc3nc12.Cl` were 5.44 and 200 mg/kg/day.

`NCCS(=O)(=O)Nc1ccc(Nc2c3ccccc3nc3cc([N+](=O)[O-])ccc23)cc1`: the pKa in “physchem” is 5.25. Same read-out and setting: the value for `Cc1cccc2c(Nc3ccc(NS(=O)(=O)CCCCNC(=N)N)cc3)c3cccc(C)c3nc12` was 6.41; that for `N=C(N)NCCCCCS(=O)(=O)Nc1ccc(Nc2c3ccccc3nc3cc([N+](=O)[O-])ccc23)cc1` was 5.36; that for `CC(=O)Nc1ccc2c(Nc3ccc(NS(=O)(=O)CCCNC(=N)N)cc3)c3ccc([N+](=O)[O-])cc3nc2c1` was 5.58. In “physchem”, `N=C(N)NCCCCS(=O)(=O)Nc1ccc(Nc2c3ccccc3nc3cc([N+](=O)[O-])ccc23)cc1` registered a pKa of 5.36.

With `NCCC(=O)NCCS(=O)(=O)Nc1ccc(Nc2c3ccccc3nc3cc([N+](=O)[O-])ccc23)cc1`, in “physchem”, the pKa is 5.35.

Regarding `Cl.NCCCCCS(=O)(=O)Nc1ccc(Nc2c3ccccc3nc3ccccc23)cc1`, the pKa in the data set “physchem” is 6.92. In “in vivo [1]”, the MTD was 60 mg/kg/day. Turning to `NCCCS(=O)(=O)Nc1ccc(Nc2c3ccccc3nc3ccccc23)cc1`, the pKa in the data set “physchem” was found to be 6.89. The same measure, in the same setting: the value for `NCCCCS(=O)(=O)Nc1ccc(Nc2c3ccccc3nc3cc([N+](=O)[O-])ccc23)cc1` was 5.34.

`N=C(N)NCCCCCCS(=O)(=O)Nc1ccc(Nc2c3ccccc3nc3cc([N+](=O)[O-])ccc23)cc1`: the pKa in “physchem” was 5.35. On the same count and under the same terms, the value for `NCC(=O)NCCS(=O)(=O)Nc1ccc(Nc2c3ccccc3nc3ccccc23)cc1` was 6.9.

For the compound `N=C(N)NCCCS(=O)(=O)Nc1ccc(Nc2c3ccc([N+](=O)[O-])cc3nc3cc([N+](=O)[O-])ccc23)cc1`, in “physchem”, the pKa turned out to be 3.68. The compound `Cl.N=C(N)NCCCCS(=O)(=O)Nc1ccc(Nc2c3ccccc3nc3ccccc23)cc1` had a pKa in the data set “physchem” of 6.91. Moreover, the MTD in “in vivo [1]” worked out at 75 mg/kg/day. In turn, `Cc1ccc2c(Nc3ccc(NS(=O)(=O)CCCCN)cc3)c3ccc([N+](=O)[O-])cc3nc2c1C` registered a pKa in “physchem” of 5.52.

As to `CC(=O)Nc1ccc2c(Nc3ccc(NS(=O)(=O)CCNC(=N)N)cc3)c3ccc([N+](=O)[O-])cc3nc2c1`, in the data set “physchem”, the pKa was found to be 5.55. In the data set “in vivo [2]”, `Cl.NCCCCCCS(=O)(=O)Nc1ccc(Nc2c3ccccc3nc3cc([N+](=O)[O-])ccc23)cc1` returned an MTD of 2 mg/kg/day. Moreover, in “physchem”, the pKa amounted to 5.34.

`C[n+]1c2ccccc2c(Nc2ccc(NS(=O)(=O)CCNC(=O)CCN)cc2)c2ccccc21` had a pKa in the data set “physchem” of 6.7. Consider `CS(=O)(=O)Nc1ccc(Nc2c3ccccc3nc3ccccc23)cc1`, for which, in “physchem”, the pKa is 7.19. Still for that read-out and setting: the value for `N=C(N)NCCS(=O)(=O)Nc1ccc(Nc2c3ccccc3nc3cc([N+](=O)[O-])ccc23)cc1` was 5.26; that for `NCCC(=O)NCCS(=O)(=O)Nc1ccc(Nc2c3ccccc3nc3ccccc23)cc1` was 6.91.

In “physchem”, `C[n+]1c2ccccc2c(Nc2ccc(NS(=O)(=O)CCCCN)cc2)c2ccccc21` showed a pKa of 6.72. Take `CC(=O)Nc1ccc2c(Nc3ccc(NS(=O)(=O)CCCCN)cc3)c3ccccc3nc2c1`: the pKa in the data set “physchem” was 7.16. The same measure, in the same setting: the value for `NCC(=O)NCCS(=O)(=O)Nc1ccc(Nc2c3ccccc3nc3cc([N+](=O)[O-])ccc23)cc1` was 5.34.

(Values after ChEMBL document CHEMBL3272170, “Potential antitumor agents. 24. Dicationic analogues of the 4'-(9-acridinylamino)alkanesulfonanilides” (J Med Chem, 1977).)
